Test system: endocardial tissue slabs (incorporating the construct injection site)
Set-up: species or system dog

Structure (SMILES) | effect on rate of isoproterenol-enhanced rhythms
NC1=N[C@H](O)[C@H]2[C@H]3O[C@]4(O)O[C@@H]([C@@H](O)[C@@]2(N1)[C@@H]4O)[C@]3(O)CO [Tetrodotoxin, tetrodotoxin] | reductions in rate
COc1cc2c(cc1OC)CC(=O)N(CCCN(C)C[C@H]1Cc3cc(OC)c(OC)cc31)CC2 [ivabradine] | reductions in rate

— US20160333071A1 (THE TRUSTEES OF COLUMBIA UNIVERSITY IN THE CITY OF NEW YORK, priority 2014, published 2016)
